Test results published in patent US12442042B2, “Epigenomic profiling reveals the somatic promoter landscape of primary gastric adenocarcinoma” (AGENCY FOR SCIENCE, TECHNOLOGY AND RESEARCH, priority 2016, dated 2025).

What was measured:
IM95 GC cells = assay: EZH2 inhibition: RNA-seq of GSK126-treated IM95 cells at promoter loci; type: cell-based, human
Procedure: IM95 were treated with GSK126 (Selleck, USA), a selective EZH2 inhibitor, at a concentration of 5 μM. Cell proliferation was monitored in 96-well plates post-treatment with GSK126 using the CellTiter-Glo® Luminescent Cell Viability Assay (Promega) for three independent experiments. For RNA-seq analysis, total RNA was extracted using the Qiagen RNAeasy mini kit according to manufacturer's instructions. Cells were treated with GSK126 (Selleck, USA; dissolved in DMSO) at a concentration of 5 μM. Control cells were treated with the same concentration of DMSO (0.1%). RNAseq differential analysis for promoter loci was carried out using edgeR on read counts mapping to H3K4me3 regions estimated using featureCounts. RNAseq gene level differential analysis was performed using cuffdiff2.2.1.

HLA-A*02:06 T cells = assay: IFN-γ assay: primed T cells co-cultured with AGS cells expressing RASA3 isoforms (ELISA); type: cell-based, human; conditions: T cells primed with the isoform, co-cultured with AGS cells expressing the same isoform, two days
Procedure: To test the immunogenicity of the RASA3 WT and Variant protein sequences, CD14+ monocytes were isolated from a HLA-A*02:06 donor by positive selection using magnetic beads (Miltenyi, Germany). Dendritic cells were generated by GM-CSF (1000 IU/ml) and IL-4 (400 IU/ml), and further matured by TNF (10 ng/ml), IL-1b (10 ng/ml), IL-6 (10 ng/ml) (Miltenyi, Germany) and PGE2 (1 μg/ml) (Stemcell Technologies, Canada) for 24 hours. The DCs were then primed with AGS cell lysates expressing WT RASA3 or Variant RASA3 for 24 hours, before being co-cultured with T cells from the same donor at the ratio of 1:5. After 5 days of co-culture with DC, T cells were isolated by positive selection using CD3 magnetic beads (Miltenyi, Germany) and co-cultured with AGS cells expressing either WT or Variant RASA3 at the ratio of 20:1 for two days. Supernatants were harvested and IFN-γ release was measured by ELISA (R&D, USA).

AGS cells [1] = assay: Transwell migration assay; type: cell-based; conditions: KRAS mutated AGS cells transfected with isoform, 24 h
Procedure: (§1) To determine cell migratory capacities, RASA3 wild type and variant transfected AGS and GES1, SNU1967 and AGS, and siRNA treated NCC24 cells were tested using Corning Costar 6.5 mm Transwell with 8.0 μm Pore Polycarbonate Membrane Inserts (3422, Corning, NY, USA). 2.5×10^4 AGS cells and 2×10^4 GES1 cells, 3×10^4 SNU1967 cells and 5×10^4 NCC24 cells were suspended in 0.1 ml serum-free RPMI medium and added to the top of the Transwell insert. 0.6 ml RPMI containing 10% FBS was added into the bottom well as a chemoattractant. After incubation for 24 h at 37° C. in a 5% CO2 incubator, cells were fixed with 3.7% formaldehyde and permeabilized with 100% methanol. Non-migrated cells were scraped off with cotton swabs from the upper surface of the membrane. Migrated cells were stained with 0.5% crystal violet. The number of migrated cells were represented as the total area of migrated cells vs the area of transwell membrane calculated using ImageJ software. For cell invasion assays, the above Transwell inserts were coated with 0.1 ml (300 μg/mL) Corning Matrigel matrix (354234, Corning, NY, USA) for 2 to 4 h at 37° C. before use. All subsequent steps were identical to the migration assay protocol.

GES1 cells [2] = assay: Transwell migration assay; type: cell-based; conditions: GES1 cells transfected with isoform, 24 h
Procedure: as §1

GES1 cells [3] = assay: Matrigel invasion assay; type: cell-based; conditions: GES1 cells transfected with isoform
Procedure: as §1

SNU1967 cells [4] = assay: Matrigel invasion assay; type: cell-based; conditions: SNU1967 cells transfected with isoform
Procedure: as §1

AGS cells [5] = assay: Cell proliferation assay (WST-8); type: cell-based; conditions: 24 to 120 hours post-transfection
Procedure: (§2) 3×10^3 GES1, SNU1967 and AGS cells were plated into 96-well plates in media with 10% fetal bovine serum and left overnight to attach. The next day (Day 0), cells were transiently transfected with wild-type and variant RASA3 constructs using Lipofectamine 3000 (Thermo Scientific). The amount of the constructs was 40 ng/well for AGS and 100 ng/well for GES1 and SNU1967 cells. Cell proliferation was measured by the WST-8 assay (Cell Counting Kit-8, Dojindo) from 24 to 120 hours post-transfection. 10 μL of WST-8 solution was added per well and the absorbance reading was measured at 450 nm after 2 hours of incubation in a humidified incubator.

GES1 cells [6] = assay: Cell proliferation assay (WST-8); type: cell-based; conditions: 24 to 120 hours post-transfection
Procedure: as §2

SNU1967 cells [7] = assay: Cell proliferation assay (WST-8); type: cell-based; conditions: 24 to 120 hours post-transfection
Procedure: as §2

RAS = assay: RAS-GTP assay (Active RAS pull-down) in GES1 cells; type: cell-based; conditions: vs empty vector or RASA3 SomT
Procedure: GES1 cells were transfected with either RASA3 CanT, RASA3 SomT or empty vector for 48 hours. Cells were harvested for protein in FBS containing media or subjected to over-night serum starvation followed by serum stimulation for 30 minutes prior to harvest. Proteins were extracted using ice-cold lysis buffer (Active RAS Pull-down and Detection Kit) containing protease inhibitor cocktail (Nacalai Tesque). Active RAS fraction was obtained using the Active RAS Pull-down and Detection Kit (Thermo Fisher Scientific) according to manufacturer's instructions. Total RAS was measured in corresponding whole cell protein lysates. β-actin was used as a loading control. Protein concentrations were determined using the Pierce BCA protein assay (Thermo Scientific). SDS sample buffer was added to the lysates and boiled at 100° C. for 5 minutes. Samples were loaded in each well of a 4-15% Mini-Protean TGX gel (Biorad) and transferred to a PVDF membrane using a semi-dry blotting system (Biorad). Membranes were probed with anti-RAS (1 in 200 dilution, supplied in Active RAS Pull-down and Detection Kit), or B-actin (1 in 5000 dilution, Sigma A5316) in 5% milk-PBST at 4° C. over-night. Secondary anti-mouse antibody (LNA931, Amersham) was used at a dilution of 1 in 2000 for 1 hour at room temperature. […]

CC[C@H](C)n1cc(C)c2c(C(=O)NCc3c(C)cc(C)[nH]c3=O)cc(-c3ccc(N4CCNCC4)nc3)cc21 [GSK126]
deregulated promoters mapping to somatic promoters lost in primary GC that were reactivated (IM95 GC cells; 78/87, FC>=2, qval<0.1): 89.6% | gene sets of genes upregulated upon EZH2 inhibition (IM95 GC cells; Day 6 and 9, RNA-seq): enriched in previously identified PRC2 target gene sets | OR, somatic promoters vs all GSK126 regulated genes (IM95 GC cells; Fisher Test, P<0.001): 9.21 | OR, somatic promoters vs unaltered promoters changing expression (IM95 GC cells; Fisher Test, P<0.001): 1.46 | promoters deregulated in total (IM95 GC cells; GSK126 5 μM, Day 6 and 9, RNA-seq): 2134 | proportion of somatic promoters deregulated (IM95 GC cells; GSK126 5 μM, RNA-seq): 12.8% | proportion of unaltered promoters exhibiting deregulation (IM95 GC cells; GSK126 5 μM, RNA-seq): 8.8% | somatic promoters deregulated (of 1959 promoters exhibiting somatic alterations in primary GCs) (IM95 GC cells; GSK126 5 μM, RNA-seq): 251 | total proportion of genes (as defined by Gencode) regulated (IM95 GC cells; GSK126 5 μM, RNA-seq): 1.5% | expression at PSCA TSS (lost somatic promoter) (IM95 GC cells; day 6 (D6) and Day 9 (D9)): Gain of expression | expression at SLC9A9 TSS (lost somatic promoter) (IM95 GC cells; day 6 (D6) and Day 9 (D9)): Gain of expression | expression at alternative promoter ESRRG (lost promoter activity) (IM95 GC cells; day 6 (D6) and Day 9 (D9)): Gain of expression

B1: RASA3 CanT: canonical full-length RASA3 protein isoform, transfected construct (protein, UniProt Q14644 1-834, looked up)
chain: MAVEDEGLRVFQSVKIKIGEAKNLPSYPGPSKMRDCYCTVNLDQEEVFRTKIVEKSLCPFYGEDFYCEIPRSFRHLSFYIFDRDVFRRDSIIGKVAIQKEDLQKYHNRDTWFQLQHVDADSEVQGKVHLELRLSEVITDTGVVCHKLATRIVECQGLPIVNGQCDPYATVTLAGPFRSEAKKTKVKRKTNNPQFDEVFYFEVTRPCSYSKKSHFDFEEEDVDKLEIRVDLWNASNLKFGDEFLGELRIPLKVLRQSSSYEAWYFLQPRDNGSKSLKPDDLGSLRLNVVYTEDHVFSSDYYSPLRDLLLKSADVEPVSASAAHILGEVCREKQEAAVPLVRLFLHYGRVVPFISAIASAEVKRTQDPNTIFRGNSLASKCIDETMKLAGMHYLHVTLKPAIEEICQSHKPCEIDPVKLKDGENLENNMENLRQYVDRVFHAITESGVSCPTVMCDIFFSLREAAAKRFQDDPDVRYTAVSSFIFLRFFAPAILSPNLFQLTPHHTDPQTSRTLTLISKTVQTLGSLSKSKSASFKESYMATFYEFFNEQKYADAVKNFLDLISSSGRRDPKSVEQPIVLKEGFMIKRAQGRKRFGMKNFKKRWFRLTNHEFTYHKSKGDQPLYSIPIENILAVEKLEEESFKMKNMFQVIQPERALYIQANNCVEAKDWIDILTKVSQCNQKRLTVYHPSAYLSGHWLCCRAPSDSAPGCSPCTGGLPANIQLDIDGDRETERIYSLFNLYMSKLEKMQEACGSKSVYDGPEQEEYSTFVIDDPQETYKTLKQVIAGVGALEQEHAQYKRDKFKKTKYGSQEHPIGDKSFQNYIRQQSETSTHSI
modifications: full-length
notes: canonical full-length RASA3 protein isoform, transfected construct
IFNγ release from primed T cells (HLA-A*02:06 T cells): significantly more | migration (AGS cells [1]): potently suppressed | migration (AGS cells [1]; listed as RASA3 WT): more potent migration suppression | migration (GES1 cells [2]): did not | invasion (GES1 cells [3]): did not | invasion (SNU1967 cells [4]): significantly suppressed | cellular proliferation rate (AGS cells [5]): did not alter | cellular proliferation rate (GES1 cells [6]): did not alter | cellular proliferation rate (SNU1967 cells [7]): did not alter | levels of active GTP-bound RAS (RAS): lower levels of active GTP-bound RAS
